Test results taken from patent publication US8703815B2, “Small molecules that covalently modify transthyretin” (The Scripps Research Institute, priority 2009, dated 2014).

Experiments:
[1] = target: T1, K15A-TTR (Homo sapiens, UniProt P02766, K35A); experiment: Fluorimetric assay with recombinant K15A-TTR; type: binding
T1 construct: composed of 127-residue β-sheet-rich subunits; made in house
Description: [The source words this procedure for another variant and says it was used here with some conditions changed.] The excitation spectra are shown with dotted traces (λmax=328 nm), and emission spectra are adjacently (λmax=384 nm). Very low fluorescence resulted from 328 nm excitation of stilbene Compounds 4 or 2 alone in buffer (FIGS. 4A and 4B; traces substantially on the X-axis).
WT-TTR was expressed in an E. coli expression system and purified as described previously. [Lashuel et al., Biochemistry 1999, 38, 13560-13573] The covalent TTR modifiers (A1 or A2) or the non-covalent TTR ligand B2 (5 μL of a 1.44 mM solution in DMSO, final concentration: 7.2 μM) were added to 1 mL of a solution of WT-TTR homotetramer (0.2 mg/mL, 3.6 μM) in 10 mM phosphate, 100 mM KCl and 1 mM EDTA (pH 7.0 phosphate buffer) in a 2 mL Eppendorf tube. The samples were vortexed, and incubated for 18 h at 25° C. The fluorescence changes were monitored using a Varian Cary 50 spectrofluorometer at 20° C. in a 1 cm path length quartz cell. The excitation slit was set at 5 nm and the emission slit was set at […]. The samples were excited at 328 nm and the emission spectra were collected from 350 to 550 nm.
WT-TTR was expressed and purified from an E. coli expression system as described previously. [Lashuel et al., Biochemistry 1999, 38:13560]. The covalent modifiers (Compounds 4 or 2) or the non-covalent TTR ligand Compound B2 (5 μL of a 1.44 mM solution in DMSO) were added to 1 mL of a solution of WT-TTR (0.2 mg/mL, 3.6 μM) in 10 mM phosphate, 100 mM KCl and 1 mM EDTA (pH 7.0) in a 2 mL Eppendorf tube. The samples were vortexed, and incubated for 18 hours at 25° C. The fluorescence changes were monitored using a Varian Cary 50 spectrofluorometer at 20° C. in a 1 cm path length quartz cell. The excitation slits was set at 5 nm and the emission slits was set at […]. The samples were excited at 328 nm and the emission spectra were collected from 330 to 550 nm (FIG. 4). The time-dependent fluorescence changes were monitored in similar manner (FIG. 5).

[2] = target: T1, K15A-TTR; experiment: Non-covalent binding stoichiometry to K15A-TTR (immunocapture, HPLC); conditions: maximum of 2 equivalents, washing, high-pH dissociation
Source text: K15A-TTR and any compound bound to it was immunocaptured using a Sepharose-resin-conjugated anti-TTR antibody.
The ability of compounds A1 and A2, auxochromic analogs of previously discussed stilbenes [Klabunde et al., Nat. Struct. Biol. 2000, 7, 312-321; Connelly et al., Curr. Opin. Struc. Biol. 2010, 20, 54-62; Johnson et al., J. Med. Chem. 2008, 51, 6348-6358; Choi et al., J. Am. Chem. Soc. 2010, 132, 1359-1370; Choi et al., Nat. Chem. Biol. 2010, 6, 133-139; and Baures et al., Bioorg. Med. Chem. 1998, 6, 1389-1401] to form a chemoselective amide bond with the K15 residue of TTR was assessed by reverse-phase-HPLC and liquid chromatography-mass spectrometry analysis. […]
To 1 mL of WT- or K15A-TTR (5 μM in pH 7.0 phosphate buffer) in a 2 mL Eppendorf tube was added A2 (5 μL of a 2 mM solution in DMSO, final concentration: 10 μM) and then the solution was incubated at 37° C. for 24 hours on a rocker plate (30 rpm). […] After centrifugation, the supernatant was analyzed by reverse phase HPLC on a Water 600 E multi-solvent delivery system, using a Waters 486 tunable absorbance detector, a 717 autosampler, and a ThermoHypersil Keystone Betabasic-18 column (150 Å pore size, 3 μm particle size). […]

[3] = target: T2, WT-TTR (Homo sapiens, UniProt P02766); experiment: Fluorimetric assay with recombinant WT-TTR; type: binding; conditions: for increase in fluorescence intensity with WT-TTR vs compound alone in buffer: 24 hours
T2 construct: composed of 127-residue β-sheet-rich subunits; made in house; host or cells: E. coli
Description: WT-TTR was expressed in an E. coli expression system and purified as described previously. […] The samples were vortexed, and incubated for 18 h at 25° C. […] The excitation slit was set at 5 nm and the emission slit was set at […]. The samples were excited at 328 nm and the emission spectra were collected from 350 to 550 nm. WT-TTR was expressed and purified from an E. coli expression system as described previously. [Lashuel et al., Biochemistry 1999, 38:13560]. […] The samples were vortexed, and incubated for 18 hours at 25° C. […] The excitation slits was set at 5 nm and the emission slits was set at […]. The samples were excited at 328 nm and the emission spectra were collected from 330 to 550 nm (FIG. 4). The time-dependent fluorescence changes were monitored in similar manner (FIG. 5).

| fluorescence upon binding to K15A-TTR (in words) [1] | fluorescence after incubation with WT-TTR (in words) ([3]; phosphate buffer pH 7, 18 hours) | t50 of conjugation to WT-TTR by fluorescence ([3]; WT-TTR […], compound 7.2 μM) [min] | Structure (SMILES) | equivalents non-covalently bound to K15A-TTR homotetramer [2] [equivalents] | increase in fluorescence intensity with WT-TTR vs compound alone in buffer ([3]; WT-TTR […], compound 7.2 μM) |
| --- | --- | --- | --- | --- | --- |
| no significant fluorescence increase | bright blue fluorescence |  | Cc1cc(/C=C/c2cc(C(=O)Sc3ccc(F)cc3)cc(N(C)C)c2)cc(C)c1O [Compound A2, (E)-S-4-fluorophenyl 3-(dimethylamino)-5-(4-hydroxy-3,5-dimethylstyryl)-benzothioate] | 0.88 |  |
| remain non-fluorescent |  | 22 | Cc1cc(/C=C/c2cccc(C(=O)Sc3ccccc3)c2)cc(C)c1O [Compound 2, (E)-S-phenyl 3-(4-hydroxy-3,5-dimethylstyryl)benzothioate] |  | about 1100 fold |

| Structure (SMILES) | fluorescence upon binding to K15A-TTR (in words) [1] | fluorescence after incubation with WT-TTR (in words) ([3]; phosphate buffer pH 7, 18 hours) | t50 of conjugation to WT-TTR by fluorescence ([3]; WT-TTR […], compound 7.2 μM) [min] | equivalents non-covalently bound to K15A-TTR homotetramer [2] [equivalents] | increase in fluorescence intensity with WT-TTR vs compound alone in buffer ([3]; WT-TTR […], compound 7.2 μM) |
| --- | --- | --- | --- | --- | --- |
| Cc1cc(/C=C/c2cccc(C(=O)Oc3ccc(F)cc3)c2)cc(C)c1O [Compound 4, (E)-4-fluorophenyl 3-(4-hydroxy-3,5-dimethylstyryl)benzoate] | remain non-fluorescent |  |  | 1.4 | about 560 fold |
